Data on two compounds can be found in article PMC8160210, “Single tryptophan Y160W mutant of homooligomeric E. coli purine nucleoside phosphorylase implies that dimers forming the hexamer are functionally not equivalent” (Scientific Reports, 2021).

Test [1] concerns the target T1, Y160W PNP mutant (Escherichia coli, UniProt P0ABP8, Y161W). The test is described as follows: Inhibition of m^7Guo phosphorolysis. In kind it is biochemical, E. coli. Details: made in house; host or cells: E. coli DH5α-T1. The method, then:
All activity measurements and kinetic studies were done in 50 mM Hepes/HCl buffer pH 7.0 at 25 °C as previously described for the WT E. coli PNP and its active-site mutants, using direct spectrophotometric assay for adenosine, guanosine and 7-methylguanosine as substrates, and a coupled assay with xanthine oxidase in the case of inosine[13],[28],[29]. Activity measurements were performed for each protein sample, before and after each experiment as a control of the state of the protein.
To determine inhibition model and inhibition constant for formycin A, rate of phosphorolysis with m^7Guo as a variable substrate, at constant, 50 mM, phosphate concentration, was registered in the absence of the inhibitor and in the presence of two different concentrations of formycin. A global fitting to the whole data set was performed, using various models (competitive, uncompetitive, noncompetitive, mixed). As expected for the substrate analogue, competitive model described the data sufficiently well:3 v0c0=Vmax1c0/c0+KM1+ci/Ki where ci is inhibitor concentration. Kinetic data were analysed using the GraphPad Prism program (Intuitive Software for Science, San Diego, CA, USA).

For test [2], the target named is T1, Y160W PNP mutant. The test is described as follows: Fluorescence titrations with phosphate. Details: made in house; host or cells: E. coli DH5α-T1; species or system E. coli. The note with it: three-binding-site model, 25 °C. The method, then:
All experiments were carried out on the Perkin-Elmer LS55 spectrofluorimeter. Fluorescence spectra were registered using in each case (protein or protein–ligand complex) several excitation wavelengths. Differential spectra were calculated by subtracting spectrum of a protein from the spectrum of the appropriate complex. The negative differential fluorescence intensity means that a decrease of fluorescence upon complex formation is observed. Titrations of the enzyme with phosphate were registered using several excitation and observation wavelengths combinations. When selecting specific wavelengths for such a combination, two criteria were used: (1) the overall change in the fluorescence signal and (2) the complexity of the shape of the titration as the analysis of the multi-phasic curves is more explicit than a uni-phasic curve analysis.
Path length for the excitation was 2 mm and for the emission was 5 mm (half of the cuvette dimensions). A continuous stirring was used during titrations. All measurements were performed at 25 °C. […]
Fluorescence intensity of the WT protein is stable over time, but in the case of the Y160W mutant a slight quenching of fluorescence is observed during titration, which typically lasted about 30 min as the time between each point in the titration was 1 min. Furthermore, adding phosphate during titration stabilises the intrinsic fluorescence of the protein. […] Thus corrected binding curves, F^cor([Pi]), are given by the following equation, in which Fn([Pi]) is the fluorescence intensity measured for the phosphate concentration [Pi], and n is the number of a given titration point in the particular titration:4 FncorPi=FnPi+∑m=1naPim
To check its influence on the intrinsic protein fluorescence, titrations with NaCl were performed, giving dependence F(I). […] Titration curves of the WT protein with phosphate were therefore measured up to 100 mM ionic strength of solution, which is enough to observe a plateau. […] Both F^obs([Pi]) and F(I) were corrected for the time dependent fluorescence quenching, according to Eq. (4), prior to the F^bind([Pi]) calculation. […]

SMILES strings stand for the structures. Where two headings read alike, the source gives them in different places.

T1 sequence (P0ABP8 2-239 Y161W): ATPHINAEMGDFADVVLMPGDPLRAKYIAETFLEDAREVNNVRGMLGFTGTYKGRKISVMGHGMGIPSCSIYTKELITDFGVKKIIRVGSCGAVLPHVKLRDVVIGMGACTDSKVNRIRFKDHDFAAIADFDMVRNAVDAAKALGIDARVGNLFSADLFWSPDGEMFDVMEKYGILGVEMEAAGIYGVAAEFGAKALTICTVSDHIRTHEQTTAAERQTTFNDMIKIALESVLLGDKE

On to `Nc1ncnc2c([C@@H]3O[C@H](CO)[C@@H](O)[C@H]3O)[nH]nc12` [FA, Formycin A], for which the Ki on Y160W PNP mutant [1] was found to be 42 ± 4 µM.

As to `O=P(O)(O)O` [Pi, Orthophosphate], the Kd on Y160W PNP mutant [2] (50 mM Tris/HCl pH 7.6, read-out: Kd1 ± SD) came out at 7 µM; at Y160W PNP mutant [2] (50 mM Tris/HCl pH 7.6, read-out: Kd2 ± SD) it was 200 µM; on Y160W PNP mutant [2] (50 mM Tris/HCl pH 7.6, read-out: Kd3 ± SD), 3200 µM.
